Test results: ChEMBL document CHEMBL5291721, “A preclinical secondary pharmacology resource illuminates target-adverse drug reaction associations of marketed drugs” (Nat Commun, 2023)

Legend:
[1] = target: T1, Alpha-2A adrenergic receptor (Homo sapiens, UniProt P08913); assay type: functional, cell-based
T1 sequence (P08913 whole entry): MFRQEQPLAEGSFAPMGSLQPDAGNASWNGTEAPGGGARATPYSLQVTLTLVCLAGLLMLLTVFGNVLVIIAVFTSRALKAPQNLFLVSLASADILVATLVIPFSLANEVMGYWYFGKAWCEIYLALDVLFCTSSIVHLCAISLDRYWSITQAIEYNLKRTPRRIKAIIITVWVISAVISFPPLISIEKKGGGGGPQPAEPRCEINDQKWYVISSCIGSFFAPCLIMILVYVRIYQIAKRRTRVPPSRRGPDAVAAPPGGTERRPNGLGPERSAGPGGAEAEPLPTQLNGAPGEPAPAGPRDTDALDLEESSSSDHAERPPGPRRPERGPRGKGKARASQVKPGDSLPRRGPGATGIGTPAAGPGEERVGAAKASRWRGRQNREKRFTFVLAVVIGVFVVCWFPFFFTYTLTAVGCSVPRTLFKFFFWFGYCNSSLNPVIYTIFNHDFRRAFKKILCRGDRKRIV

[2] = target: T2, Muscarinic acetylcholine receptor M2 (Homo sapiens, UniProt P08172); assay type: functional, cell-based
T2 sequence (P08172 whole entry): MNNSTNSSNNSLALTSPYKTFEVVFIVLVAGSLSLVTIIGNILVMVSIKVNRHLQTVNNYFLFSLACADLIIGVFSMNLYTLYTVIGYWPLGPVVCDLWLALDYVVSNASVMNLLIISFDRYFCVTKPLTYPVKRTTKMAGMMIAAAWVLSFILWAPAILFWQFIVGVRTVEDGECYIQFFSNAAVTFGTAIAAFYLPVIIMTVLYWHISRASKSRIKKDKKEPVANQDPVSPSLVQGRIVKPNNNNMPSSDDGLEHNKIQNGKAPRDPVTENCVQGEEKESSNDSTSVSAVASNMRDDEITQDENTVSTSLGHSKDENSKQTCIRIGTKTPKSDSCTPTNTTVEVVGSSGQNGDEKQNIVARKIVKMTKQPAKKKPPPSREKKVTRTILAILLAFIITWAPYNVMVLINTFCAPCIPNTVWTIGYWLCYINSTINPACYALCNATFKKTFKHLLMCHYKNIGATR

Cannabinoid receptor 1 = Cannabinoid receptor 1 (Homo sapiens, UniProt P21554); assay type: functional, cell-based
[3] = target: T3, Equilibrative nucleoside transporter 1 (Homo sapiens, UniProt Q99808)
T3 sequence (Q99808 whole entry): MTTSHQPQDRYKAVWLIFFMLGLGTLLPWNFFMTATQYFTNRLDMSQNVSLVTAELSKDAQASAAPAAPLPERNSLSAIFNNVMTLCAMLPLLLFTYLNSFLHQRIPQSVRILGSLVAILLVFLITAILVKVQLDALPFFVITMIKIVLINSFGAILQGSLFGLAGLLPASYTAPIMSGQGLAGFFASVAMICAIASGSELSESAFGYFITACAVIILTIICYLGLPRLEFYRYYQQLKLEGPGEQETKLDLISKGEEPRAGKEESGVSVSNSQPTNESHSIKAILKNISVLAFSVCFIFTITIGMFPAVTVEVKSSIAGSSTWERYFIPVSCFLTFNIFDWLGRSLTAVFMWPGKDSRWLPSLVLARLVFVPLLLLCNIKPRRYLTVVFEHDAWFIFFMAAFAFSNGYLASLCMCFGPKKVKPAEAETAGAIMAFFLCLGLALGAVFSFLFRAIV

[4] = target: Sodium-dependent noradrenaline transporter (Homo sapiens, UniProt P23975)
[5] = target: Gamma-aminobutyric acid receptor subunit alpha-1 (Rattus norvegicus, UniProt P62813)
[6] = target: T4, Muscarinic acetylcholine receptor M1 (Homo sapiens, UniProt P11229); assay type: functional, cell-based
T4 sequence (P11229 whole entry): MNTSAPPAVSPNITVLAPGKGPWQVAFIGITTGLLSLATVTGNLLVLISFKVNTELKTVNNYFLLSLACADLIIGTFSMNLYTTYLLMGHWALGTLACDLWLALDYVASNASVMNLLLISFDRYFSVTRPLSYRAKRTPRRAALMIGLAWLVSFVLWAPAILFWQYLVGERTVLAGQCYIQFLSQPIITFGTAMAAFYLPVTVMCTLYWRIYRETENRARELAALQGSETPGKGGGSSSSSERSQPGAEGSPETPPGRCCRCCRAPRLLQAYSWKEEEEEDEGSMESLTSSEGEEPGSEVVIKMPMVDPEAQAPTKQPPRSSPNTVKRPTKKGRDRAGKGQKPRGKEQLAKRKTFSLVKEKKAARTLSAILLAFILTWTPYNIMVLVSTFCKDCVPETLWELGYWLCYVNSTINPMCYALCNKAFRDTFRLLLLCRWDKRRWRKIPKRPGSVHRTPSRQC
Note: assay procedure not described here.

Sequence of Cannabinoid receptor 1 (P21554 whole entry): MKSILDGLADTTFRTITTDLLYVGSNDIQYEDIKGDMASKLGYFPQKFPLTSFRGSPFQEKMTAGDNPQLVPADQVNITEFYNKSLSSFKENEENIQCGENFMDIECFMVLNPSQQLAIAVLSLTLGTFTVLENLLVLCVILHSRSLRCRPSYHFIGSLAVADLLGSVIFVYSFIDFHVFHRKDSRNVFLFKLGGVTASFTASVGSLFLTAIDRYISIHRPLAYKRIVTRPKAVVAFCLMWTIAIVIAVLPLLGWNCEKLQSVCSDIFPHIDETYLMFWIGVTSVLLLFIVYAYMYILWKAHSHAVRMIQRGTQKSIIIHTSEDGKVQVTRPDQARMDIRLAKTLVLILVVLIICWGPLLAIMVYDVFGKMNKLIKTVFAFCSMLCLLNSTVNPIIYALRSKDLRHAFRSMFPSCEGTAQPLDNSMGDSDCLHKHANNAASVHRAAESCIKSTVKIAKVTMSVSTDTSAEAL
Sequence of Gamma-aminobutyric acid receptor subunit alpha-1 (P62813 whole entry): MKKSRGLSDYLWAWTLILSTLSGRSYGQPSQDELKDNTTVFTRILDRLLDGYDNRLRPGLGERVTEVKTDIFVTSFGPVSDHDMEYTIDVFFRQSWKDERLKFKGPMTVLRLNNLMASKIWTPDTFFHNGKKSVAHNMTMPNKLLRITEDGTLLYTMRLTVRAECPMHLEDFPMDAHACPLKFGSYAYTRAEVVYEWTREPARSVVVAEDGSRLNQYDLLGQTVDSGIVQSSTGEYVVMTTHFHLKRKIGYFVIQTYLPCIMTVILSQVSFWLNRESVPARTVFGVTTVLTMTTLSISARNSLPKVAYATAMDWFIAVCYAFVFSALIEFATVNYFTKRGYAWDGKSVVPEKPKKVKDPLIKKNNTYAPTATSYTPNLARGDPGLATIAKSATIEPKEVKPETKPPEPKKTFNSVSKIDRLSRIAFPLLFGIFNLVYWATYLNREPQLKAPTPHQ
Sequence of Sodium-dependent noradrenaline transporter (P23975 whole entry): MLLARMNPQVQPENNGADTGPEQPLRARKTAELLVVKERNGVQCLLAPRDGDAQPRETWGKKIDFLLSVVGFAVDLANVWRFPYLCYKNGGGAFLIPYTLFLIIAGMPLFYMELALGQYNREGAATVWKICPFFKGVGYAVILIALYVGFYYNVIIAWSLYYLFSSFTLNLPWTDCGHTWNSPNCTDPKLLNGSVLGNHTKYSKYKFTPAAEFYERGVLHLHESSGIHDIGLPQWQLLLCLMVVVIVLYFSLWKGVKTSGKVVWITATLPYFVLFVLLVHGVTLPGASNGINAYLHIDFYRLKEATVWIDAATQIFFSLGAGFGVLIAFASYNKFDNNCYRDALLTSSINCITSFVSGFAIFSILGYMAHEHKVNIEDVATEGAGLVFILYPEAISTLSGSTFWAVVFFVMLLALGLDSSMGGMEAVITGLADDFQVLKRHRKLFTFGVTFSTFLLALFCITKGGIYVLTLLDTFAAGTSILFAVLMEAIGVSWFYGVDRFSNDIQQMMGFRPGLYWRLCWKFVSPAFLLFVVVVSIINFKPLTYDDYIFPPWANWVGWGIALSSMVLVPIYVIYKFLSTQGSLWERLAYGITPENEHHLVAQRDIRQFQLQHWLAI

SMILES	AC50 [1]	AC50 [2]	AC50 (Cannabinoid receptor 1)	AC50 [3]	AC50 [4]	AC50 [5]	AC50 [6]
CCOc1nc2cccc(C(=O)O)c2n1Cc1ccc(-c2ccccc2-c2nnn[nH]2)cc1	> 30 µM	> 30 µM	> 30 µM	> 30 µM	> 30 µM	–	–
CCCc1nc2c(C)cc(-c3nc4ccccc4n3C)cc2n1Cc1ccc(-c2ccccc2C(=O)O)cc1	> 30 µM	> 30 µM	> 30 µM	> 30 µM	> 30 µM	> 30 µM	–
CCOc1cc([C@@H](CS(C)(=O)=O)N2C(=O)c3cccc(NC(C)=O)c3C2=O)ccc1OC	> 30 µM	> 30 µM	> 30 µM	> 30 µM	> 30 µM	–	–
CC(=O)NCCCCCC(=O)O [ACEXAMIC ACID]	–	–	–	–	–	–	> 30 µM
CC(=O)Nc1ccc(CC(=O)O)cc1 [ACTARIT]	> 30 µM	> 30 µM	> 30 µM	> 30 µM	> 30 µM	–	–
CC(C(=O)O)c1ccc2oc(-c3ccc(Cl)cc3)nc2c1 (stereo unspecified) [BENOXAPROFEN]	> 30 µM	> 30 µM	> 30 µM	> 30 µM	> 30 µM	–	–
O=C(O)c1ccccc1 [BENZOIC ACID]	–	–	–	–	–	> 30 µM	–
Nc1c(CC(=O)O)cccc1C(=O)c1ccc(Br)cc1 [BROMFENAC]	–	–	–	–	–	> 30 µM	–
CC1(C)S[C@@H]2[C@H](NC(=O)C(C(=O)O)c3ccccc3)C(=O)N2[C@H]1C(=O)O (stereo partly specified) [CARBENICILLIN]	> 30 µM	> 30 µM	> 30 µM	> 30 µM	> 30 µM	–	–
Cc1nnc(SCC2=C(C(=O)O)N3C(=O)[C@@H](NC(=O)Cn4cnnn4)[C@H]3SC2)s1 [CEFAZOLIN]	> 300 µM	> 300 µM	> 300 µM	> 300 µM	> 300 µM	–	–
CC=CC1=C(C(=O)O)N2C(=O)[C@@H](NC(=O)[C@H](N)c3ccc(O)cc3)[C@H]2SC1 [CEFPROZIL]	> 30 µM	> 30 µM	–	> 30 µM	> 30 µM	–	–
CC(C)(O/N=C(\C(=O)N[C@@H]1C(=O)N2C(C(=O)[O-])=C(C[n+]3ccccc3)CS[C@H]12)c1csc(N)n1)C(=O)O [CEFTAZIDIME]	> 300 µM	> 300 µM	> 300 µM	> 300 µM	> 300 µM	–	–
CCCNC(=O)NS(=O)(=O)c1ccc(Cl)cc1 [CHLORPROPAMIDE]	> 10 µM	> 10 µM	> 30 µM	> 30 µM	> 30 µM	–	–
Cc1cc(C2CCCCC2)n(O)c(=O)c1 [CICLOPIROX]	–	> 30 µM	–	–	> 30 µM	–	–
Clc1ccc(Cn2c(CN3CCCC3)nc3ccccc32)cc1 [CLEMIZOLE]	> 10 µM	> 10 µM	> 30 µM	> 30 µM	> 30 µM	–	–
CCC(=O)O[C@]1(C(=O)CCl)[C@@H](C)C[C@H]2[C@@H]3CCC4=CC(=O)C=C[C@]4(C)[C@@]3(F)[C@@H](O)C[C@@]21C [CLOBETASOL PROPIONATE]	> 30 µM	> 30 µM	> 30 µM	> 30 µM	> 30 µM	–	–
Cc1nc(Nc2ncc(C(=O)Nc3c(C)cccc3Cl)s2)cc(N2CCN(CCO)CC2)n1 [DASATINIB]	> 30 µM	> 30 µM	> 30 µM	> 30 µM	6.3 µM	–	–
CC(C)Cc1ccc([C@H](C)C(=O)O)cc1 [DEXIBUPROFEN]	> 30 µM	> 30 µM	> 30 µM	> 30 µM	> 30 µM	–	–
CNC[C@H](O)c1ccc(O)c(O)c1 [EPINEPHRINE]	–	> 30 µM	> 30 µM	> 30 µM	> 30 µM	–	–

SMILES	AC50 [1]	AC50 [2]	AC50 (Cannabinoid receptor 1)	AC50 [3]	AC50 [4]	AC50 [5]	AC50 [6]
Cc1onc(-c2c(F)cccc2Cl)c1C(=O)N[C@@H]1C(=O)N2[C@@H]1SC(C)(C)[C@@H]2C(=O)O [FLOXACILLIN]	> 30 µM	> 30 µM	> 30 µM	> 30 µM	> 30 µM	–	–
O=C(O)P(=O)(O)O [FOSCARNET]	–	–	–	–	–	> 30 µM	–
CCCCCCCN(CC)CCCC(O)c1ccc(NS(C)(=O)=O)cc1 (stereo unspecified) [IBUTILIDE]	> 30 µM	> 30 µM	–	> 30 µM	> 30 µM	–	–
CC[C@H](C)C(=O)O[C@H]1C[C@@H](C)C=C2C=C[C@H](C)[C@H](CC[C@@H]3C[C@@H](O)CC(=O)O3)[C@H]21 [LOVASTATIN]	> 10 µM	> 10 µM	> 30 µM	> 30 µM	> 10 µM	–	–
C[N+]1(C)CCCC(OC(=O)C(O)(c2ccccc2)c2ccccc2)C1 (stereo unspecified) [MEPENZOLATE]	–	–	–	–	–	–	> 30 µM
CC[C@@H](CO)NC(=O)[C@@H]1C=C2c3cccc4c3c(cn4C)C[C@H]2N(C)C1 [METHYSERGIDE]	> 10 µM	> 30 µM	> 30 µM	> 30 µM	> 30 µM	–	–
CNC(=C[N+](=O)[O-])NCCSCc1csc(CN(C)C)n1 [NIZATIDINE]	> 10 µM	> 10 µM	–	> 10 µM	> 10 µM	–	–
CN1Cc2c(N)cccc2C(c2ccccc2)C1 (stereo unspecified) [NOMIFENSINE]	> 30 µM	> 30 µM	> 30 µM	> 30 µM	–	–	–
CC(CN1c2ccccc2Sc2ccccc21)N(C)C (stereo unspecified) [PROMETHAZINE]	–	> 30 µM	> 30 µM	> 30 µM	0.81 µM	> 30 µM	–
CCCc1cc(=O)[nH]c(=S)[nH]1 [PROPYLTHIOURACIL]	> 10 µM	> 10 µM	–	> 10 µM	> 10 µM	–	–
Cn1cc(C(=O)[C@@H]2CCc3nc[nH]c3C2)c2ccccc21 [RAMOSETRON]	> 30 µM	> 30 µM	> 30 µM	> 30 µM	> 30 µM	–	–
CN(CCOc1ccc(CC2SC(=O)NC2=O)cc1)c1ccccn1 (stereo unspecified) [ROSIGLITAZONE]	> 30 µM	> 30 µM	> 30 µM	> 30 µM	> 30 µM	–	–
S=P(N1CC1)(N1CC1)N1CC1 [THIOTEPA]	> 30 µM	–	> 30 µM	> 30 µM	–	–	–
Cc1ccccc1C(=O)Nc1ccc(C(=O)N2CCCC(O)c3cc(Cl)ccc32)c(C)c1 (stereo unspecified) [TOLVAPTAN]	–	–	–	–	–	–	11.3 µM
C[C@]12C=CC(=O)C=C1CC[C@H]1[C@@H]3C[C@@H](O)[C@](O)(C(=O)CO)[C@@]3(C)C[C@H](O)[C@@]12F [TRIAMCINOLONE]	–	–	–	–	–	> 30 µM	–
CC(C)C[C@H](NC(=O)[C@@H](O)[C@H](N)Cc1ccccc1)C(=O)O [UBENIMEX]	> 30 µM	> 30 µM	> 30 µM	> 30 µM	> 30 µM	> 30 µM	–
CC(C)[C@H](N)C(=O)OCCOCn1cnc2c(=O)[nH]c(N)nc21 [VALACYCLOVIR]	> 10 µM	> 10 µM	> 30 µM	> 30 µM	> 10 µM	–	–
COc1cc(C(=O)NS(=O)(=O)c2ccccc2C)ccc1Cc1cn(C)c2ccc(NC(=O)OC3CCCC3)cc12 [ZAFIRLUKAST]	–	–	> 30 µM	> 10 µM	> 10 µM	–	–
